Experimental data taken from patent publication US20060069132A1, “Azolecarboxamide herbicides” (priority 2004, published 2006).

Tests used:
barnyardgrass [1] = experiment: Test B pre-/postemergence herbicide test; format: in vivo, Echinochloa crus-galli; details: for Barnyardgrass plant response rating: postemergence, scale 0 (no effect) to 100 (complete control)
In short: (§1)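 Species tested were Echinochloa crus-galli, Ipomoea coccinea, Xanthium strumarium and Oryza sativa, treated both before emergence and at the 1- to 4-leaf stage; rice and barnyardgrass were also tested under flooding at 2 leaves. Greenhouse incubation lasted 13–15 days before visual 0–100 scoring.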

Surinam grass = experiment: Test B pre-/postemergence herbicide test; format: in vivo, Urochloa decumbens; details: for Surinam Grass plant response rating: postemergence, scale 0 (no effect) to 100 (complete control)
In short: (§2)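 Evaluation is visual, comparing treated with control plants on a scale where 0 means no effect and 100 means full control. Treatments were preemergence, or postemergence on seedlings 2–18 cm tall, and held 13–15 days in the greenhouse.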

cocklebur = experiment: Test B pre-/postemergence herbicide test; format: in vivo, Xanthium strumarium; details: for Cocklebur plant response rating: postemergence, scale 0 (no effect) to 100 (complete control)
In short: as §1

corn = experiment: Test B pre-/postemergence herbicide test; format: in vivo, Zea mays; details: for Corn plant response rating: postemergence, scale 0 (no effect) to 100 (complete control)
In short: as §2

large crabgrass = experiment: Test B pre-/postemergence herbicide test; format: in vivo, Digitaria sanguinalis; details: for Crabgrass, Large plant response rating: postemergence, scale 0 (no effect) to 100 (complete control)
In short: as §2

giant foxtail = experiment: Test B pre-/postemergence herbicide test; format: in vivo, Setaria faberi; details: for Foxtail, Giant plant response rating: postemergence, scale 0 (no effect) to 100 (complete control)
In short: as §2

lambsquarters = experiment: Test B pre-/postemergence herbicide test; format: in vivo, Chenopodium album; details: for Lambsquarters plant response rating: postemergence, scale 0 (no effect) to 100 (complete control)
In short: as §2

morningglory = experiment: Test B pre-/postemergence herbicide test; format: in vivo, Ipomoea coccinea; details: for Morningglory plant response rating: postemergence, scale 0 (no effect) to 100 (complete control)
In short: as §1

pigweed = experiment: Test B pre-/postemergence herbicide test; format: in vivo, Amaranthus retroflexus; details: for Pigweed plant response rating: postemergence, scale 0 (no effect) to 100 (complete control)
In short: as §2

rice [2] = experiment: Test B pre-/postemergence herbicide test; format: in vivo, Oryza sativa; details: 0 = no effect, 100 = complete control, preemergence
In short: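 Plants compared with untreated controls 13–15 days post-treatment and given a visual 0–100 injury score. Applications: preemergence to seeds; postemergence at 1- to 4-leaf (2–18 cm); paddy species flooded, 2-leaf stage. Vehicle non-phytotoxic, surfactant included.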

velvetleaf = experiment: Test B pre-/postemergence herbicide test; format: in vivo, Abutilon theophrasti; details: for Velvetleaf plant response rating: postemergence, scale 0 (no effect) to 100 (complete control)
In short: as §2

blackgrass = experiment: Test B postemergence herbicide test; format: in vivo, Alopecurus myosuroides; details: postemergence, visual rating, scale 0 (no effect) to 100 (complete control)
In short: (§3)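 Plants grow to 1- to 4-leaf stage (2–18 cm) for postemergence spraying, or to 2-leaf stage for the paddy test. Formulated compound is applied. Greenhouse holding lasts 13–15 days. Response is scored visually relative to controls, 0 no effect to 100 complete control; a dash means no result.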

wheat = experiment: Test B postemergence herbicide test; format: in vivo, Triticum aestivum; design: key to Wheat plant response rating: 0 = no effect, 100 = complete control; details: postemergence, visual rating, scale 0 (no effect) to 100 (complete control)
In short: (§4)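 Treated at 2-leaf (paddy) or 1–4-leaf, 2–18 cm (postemergence); greenhouse 13–15 d; visual score vs control, 0 none to 100 complete control; dash = not tested.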

wild oat = experiment: Test B postemergence herbicide test; format: in vivo, Avena fatua; details: postemergence, visual rating, scale 0 (no effect) to 100 (complete control)
In short: as §4

rice [3] = experiment: Test B flooded paddy test; format: in vivo, Oryza sativa; details: 1000 g ai/ha, scale 0 to 100 (0 no effect, 100 complete control)
In short: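 Each value is a visual 0–100 response rating taken against controls 13 to 15 days after treatment in the greenhouse. Plants received formulated chemical postemergence at the 1- to 4-leaf stage or, in flooded paddy, at the 2-leaf stage.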

[4] = test system: small flower umbrella sedge; experiment: Test B flooded paddy test; format: in vivo, Cyperus difformis; details: 1000 g ai/ha, scale 0 to 100 (0 no effect, 100 complete control)
In short: as §3

ducksalad [5] = experiment: Test B flooded paddy test; format: in vivo, Heteranthera limosa; details: 1000 g ai/ha, scale 0 to 100 (0 no effect, 100 complete control)
In short: as §3

barnyardgrass [6] = experiment: Test B flooded paddy test; format: in vivo, Echinochloa crus-galli; details: 1000 g ai/ha, scale 0 to 100 (0 no effect, 100 complete control)
In short: as §3

rice [7] = experiment: Test C flooded paddy test; format: in vivo, Oryza sativa
In short: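 Plants were grown to the 1- to 4-leaf stage (2–18 cm) and then treated postemergence, or grown to the 2-leaf stage for the flooded paddy test. They were held in a greenhouse for 12 to 14 days and then scored by eye against controls, where 0 is no effect and 100 is complete control.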

[8] = test system: smallflower umbrella sedge; experiment: Test C flooded paddy test; format: in vivo, Cyperus difformis
ducksalad [9] = experiment: Test C flooded paddy test; format: in vivo, Heteranthera limosa
barnyardgrass [10] = experiment: Test C flooded paddy test; format: in vivo, Echinochloa crus-galli
In short: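 After a postemergence application at 1 to 4 leaves (plants 2–18 cm high), or at 2 leaves for barnyardgrass in flooded paddy, plants stayed in the greenhouse for 12 to 14 days. Damage was then judged visually relative to control plants, with 100 indicating complete control.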

[11] = 125 g ai/ha, 0 = no effect, 100 = complete control, preemergence
[12] = 500 g ai/ha, visual rating, 0 = no effect, 100 = complete control, preemergence
[13] = 62 g ai/ha, scale 0 to 100 (0 no effect, 100 complete control)
[14] = 125 g ai/ha, scale 0 to 100 (0 no effect, 100 complete control)
[15] = 250 g ai/ha, scale of 0 to 100, 0 is no effect, 100 is complete control
[16] = 500 g ai/ha, visual rating after 12 to 14 days, scale 0 to 100 (0 no effect, 100 complete control)

CCc1nc(C(C)(C)C)sc1C(=O)Nc1cc(C(=O)N(C)CC)ccc1F [Compound 231]
Barnyardgrass plant response rating (0 to 100 scale) (barnyardgrass [1]; [11]): 50
Plant response rating, Barnyardgrass (barnyardgrass [1]; [12]): 80
Barnyardgrass plant response rating (barnyardgrass [1]; 125 g ai/ha, visual rating): 10
Barnyardgrass plant response rating (barnyardgrass [1]; 500 g ai/ha, visual rating): 40
Surinam Grass plant response rating (0 to 100 scale) (Surinam grass; [11]): 20
Plant response rating, Surinam Grass (Surinam grass; [12]): 60
Surinam Grass plant response rating (Surinam grass; 125 g ai/ha, visual rating): 10
Surinam Grass plant response rating (Surinam grass; 500 g ai/ha, visual rating): 30
Cocklebur plant response rating (0 to 100 scale) (cocklebur; [11]): 0
Plant response rating, Cocklebur (cocklebur; [12]): 30
Cocklebur plant response rating (cocklebur; 125 g ai/ha, visual rating): 10
Cocklebur plant response rating (cocklebur; 500 g ai/ha, visual rating): 40
Corn plant response rating (0 to 100 scale) (corn; [11]): 0
Plant response rating, Corn (corn; [12]): 50
Corn plant response rating (corn; 125 g ai/ha, visual rating): 10
Corn plant response rating (corn; 500 g ai/ha, visual rating): 20
Crabgrass, Large plant response rating (0 to 100 scale) (large crabgrass; [11]): 30
Plant response rating, Crabgrass, Large (large crabgrass; [12]): 90
Crabgrass, Large plant response rating (large crabgrass; 125 g ai/ha, visual rating): 20
Crabgrass, Large plant response rating (large crabgrass; 500 g ai/ha, visual rating): 20
Foxtail, Giant plant response rating (0 to 100 scale) (giant foxtail; [11]): 60
Plant response rating, Foxtail, Giant (giant foxtail; [12]): 90
Foxtail, Giant plant response rating (giant foxtail; 125 g ai/ha, visual rating): 20
Foxtail, Giant plant response rating (giant foxtail; 500 g ai/ha, visual rating): 30
Lambsquarters plant response rating (0 to 100 scale) (lambsquarters; [11]): 80
Plant response rating, Lambsquarters (lambsquarters; [12]): 100
Lambsquarters plant response rating (lambsquarters; 125 g ai/ha, visual rating): 60
Lambsquarters plant response rating (lambsquarters; 500 g ai/ha, visual rating): 70
Morningglory plant response rating (0 to 100 scale) (morningglory; [11]): 10
Plant response rating, Morningglory (morningglory; [12]): 10
Morningglory plant response rating (morningglory; 125 g ai/ha, visual rating): 20
Morningglory plant response rating (morningglory; 500 g ai/ha, visual rating): 70
Pigweed plant response rating (0 to 100 scale) (pigweed; [11]): 60
Plant response rating, Pigweed (pigweed; [12]): 100
Pigweed plant response rating (pigweed; 125 g ai/ha, visual rating): 50
Pigweed plant response rating (pigweed; 500 g ai/ha, visual rating): 70
Rice plant response rating (0 to 100 scale) (rice [2]; 125 g ai/ha): 20
Plant response rating, Rice (rice [2]; 500 g ai/ha, visual rating): 50
Velvetleaf plant response rating (0 to 100 scale) (velvetleaf; [11]): 30
Plant response rating, Velvetleaf (velvetleaf; [12]): 90
Velvetleaf plant response rating (velvetleaf; 125 g ai/ha, visual rating): 30
Velvetleaf plant response rating (velvetleaf; 500 g ai/ha, visual rating): 50
Blackgrass plant response rating (blackgrass; 125 g ai/ha): 20
Blackgrass plant response rating (blackgrass; 500 g ai/ha): 30
Wheat plant response rating (wheat; 125 g ai/ha): 20
Wheat plant response rating (wheat; 500 g ai/ha): 40
Oat, Wild plant response rating (wild oat; 125 g ai/ha): 20
Oat, Wild plant response rating (wild oat; 500 g ai/ha): 40
Rice plant response rating (rice [3]): 80
Sedge, Umbrella plant response rating [4]: 90
Ducksalad plant response rating (ducksalad [5]): 90
Barnyardgrass plant response rating (barnyardgrass [6]): 80
Rice plant response rating (rice [7]; [13]): 30
Rice plant response rating (rice [7]; [14]): 55
Rice plant response rating (rice [7]; [15]): 75
Plant response rating, Rice (rice [7]; [16]): 80
Sedge, Umbrella plant response rating [8, 13]: 10
Sedge, Umbrella plant response rating [8, 14]: 55
Sedge, Umbrella plant response rating [8, 15]: 65
Plant response rating, Sedge, Umbrella [8, 16]: 75
Ducksalad plant response rating (ducksalad [9]; [13]): 10
Ducksalad plant response rating (ducksalad [9]; [14]): 60
Ducksalad plant response rating (ducksalad [9]; [15]): 70
Plant response rating, Ducksalad (ducksalad [9]; [16]): 80
Barnyardgrass plant response rating (barnyardgrass [10]; [13]): 40
Barnyardgrass plant response rating (barnyardgrass [10]; [14]): 45
Barnyardgrass plant response rating (barnyardgrass [10]; [15]): 75
Plant response rating, Barnyardgrass (barnyardgrass [10]; [16]): 80
